The logP is the decadic logarithm of the partition coefficient of the neutral form, usually between octanol and water. Read a low logP as a more hydrophilic compound.

Compound `CCc1oc(C)cc(=O)c1O` came in with a logP of 1.07.
For `CCOCc1cc(=O)c(O)co1` the value was -0.38; for `NCCn1ccc(=O)c(O)c1`, -0.66; for `CCCCOCc1cc(=O)c(O)co1`, 0.78.
The same measure for `O=c1ccocc1O`: -0.92; for `COCc1cc(=O)c(O)co1`: -0.62; for `Cc1cc(=O)c(O)c(C)o1`: 0.44.
For `CCCOCc1cc(=O)c(O)co1` the value was 0.3; for `CCc1occc(=O)c1O`, 0.63.
Take `CCCn1cccc(O)c1=O`: the lipophilicity (logP) is 0.69.
For `Cc1cc(=O)c(O)co1` the value was -0.59; for `CCn1cccc(O)c1=O`, 0.2.

The record behind these values is the OPERA property sets (Mansouri et al. 2018).
